In publication PMC10343475, “Systematic Modification of the Substitution Pattern of the 7-Hydroxy-5-oxopyrazolo[4,3-b]pyridine-6-carboxamide Scaffold Enabled the Discovery of New Ligands with High Affinity and Selectivity for the Cannabinoid Type 2 Receptor” (Molecules, 2023):
Values joined by “and” are separate entries in the source; they are usually repeats but may differ in a detail not shown here. Identical values can stand only once. Like-named read-outs stand apart in the source and are kept apart here.

How the values were obtained:
[1] = Dissolution of 63-salts in 0.9% NaCl solution (LC-MS/MS); type: physicochemical
From the text: [63^−] = 9.81 × 10^−7 mol^2/L^2. […] However, starting from the cesium salt, the concentration of drug dissolved in the physiological solution maintained high values for at least one hour (around 50 × 10^−6 mol/L, with a peak higher than 100 × 10^−6 mol/L) and, for a further two hours, these values were higher than those obtained with the sodium salt. From this, it can be deduced that the 63-cesium salt would be very suitable for the extemporaneous preparation of injectable solutions in the presence of high concentrations of sodium ions.
An excess amount (~4 to 5 mg) of each salt of compound 63 was added to 5 mL of a 0.9% NaCl solution, kept under constant agitation, and thermostated at room temperature (21 ± 2 °C). At fixed time points, an aliquot was withdrawn from the solution, and centrifuged (3000 g, 10 min, RT) to separate undissolved compound and the supernatant, after dilution with MeOH, was analyzed by LC-MS/MS. An Accela UHPLC system coupled with a TSQ Quantum Access Max triple quad mass spectrometer (Thermo Fisher, Waltham, MA, USA), was employed to quantify dissolved 63 over time. UHPLC separation occurred by gradient elution, employing a Synergy Fusion C18 80Å RP-column (2.0 × 100 mm, 4 µm; Phenomenex, Bologna, Italy). Mobile phases A and B were acetonitrile and water, both with 0.1% v/v formic acid added. The following elution conditions were employed: linear gradient from 60 to 95%A in 5 min; 95% A between 5 and 8 min, returning to 60% A in 0.5 min with 2.5 min reconditioning time. Total run time: 11 min. The flow rate was 0.35 mL/min and injection volume was 10 µL. Heated electrospray (H-ESI) ion source voltage was set at 4.0 KV; capillary temperature at 270 °C. Nitrogen served both as sheath and auxiliary gas at 35 psi and 15 psi, respectively. Argon at a pressure of 1.5 mtorr was employed as collision gas. H-ESI ion source operated in positive ion mode (ESI+) and acquisition occurred in multiple reaction monitoring (MRM). Tube lens voltages (TL) and collision energies (CE) for each parent-product ion transition were optimized by flow injection analysis of 5 µM solutions of each standard in MeOH. Compound 63: m/z = 399.2 [M+H]^+ → m/z = 135.1, 107.1, 93.1 (TL = 98 V; CE = 20, 33, 37 eV, respectively). Its 1-hydroxy derivative, compound 4-(1-butyl)-4,5-dihydro-7-hydroxy-N-(1-hydroxyadamantan-3-yl)-2-methyl-5-oxo-2H-pyrazolo[4,3-b]pyridine-6-carboxamide, was employed as Internal Standard: m/z = 415.2 [M+H]^+ → m/z = 266.1, 248.1 (TL = 99 V; CE = 14, 31 eV). Calibration curves were prepared in MeOH in the 1000–10 nM concentration range starting and coefficients of determination of regression models were >0.99. Xcalibur software version 2.2 (Thermo Fisher Scientific, Inc., Waltham, MA, USA) was employed for both data acquisition and processing. […]

human CB2 receptor [2] = target: T1, human CB2 receptor (Homo sapiens, UniProt P34972); assay: Competition binding assay, displacement of [3H]-CP-55,940, CB2R; design: logKiCB2 (nM) Exp.: unit not given here; details: for Ki: CB2R Ki, membranes from HEK cells, [3H]CP-55,940, mean ± SD, at least three experiments in duplicate; for logKiCB2 (nM) Exp.: log of experimental Ki
Protocol: (§1) Binding at equilibrium was performed as previously reported. […] All compounds were tested following the procedure described by the manufacturer (Perkin Elmer, Italy). […] Ki values were calculated by applying the Cheng–Prusoff equation to the IC50 values (obtained by GraphPad) for the displacement of the bound radioligand by increasing concentrations of the test compound.

human CB2 receptor [3] = target: T1, human CB2 receptor; assay: cAMP Hunter functional assay in NKH-477-stimulated CHO-K1 cells overexpressing CB2R; details: for Functional behavior at CB2R: agonist mode / antagonist mode with JWH-133 4 µM challenge
[4] = target: human recombinant CB1 receptor (Homo sapiens, UniProt P21554); assay: Competition binding assay, displacement of [3H]-CP-55,940, CB1R
Protocol: as §1

human CB2 receptor [5] = target: T1, human CB2 receptor; details: Figure 1, earlier ligands of the group; cited from earlier work

T1 sequence (P34972 whole entry): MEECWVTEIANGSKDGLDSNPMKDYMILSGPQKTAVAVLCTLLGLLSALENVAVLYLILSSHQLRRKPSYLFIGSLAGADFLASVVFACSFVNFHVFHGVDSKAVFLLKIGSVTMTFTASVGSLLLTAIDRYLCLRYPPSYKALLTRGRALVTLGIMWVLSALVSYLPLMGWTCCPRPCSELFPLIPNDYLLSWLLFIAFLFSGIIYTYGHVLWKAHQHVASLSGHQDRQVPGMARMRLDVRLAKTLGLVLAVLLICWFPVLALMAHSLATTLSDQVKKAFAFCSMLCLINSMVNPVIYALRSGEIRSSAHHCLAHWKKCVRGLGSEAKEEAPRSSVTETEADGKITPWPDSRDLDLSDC
human recombinant CB1 receptor, sequence (P21554 whole entry): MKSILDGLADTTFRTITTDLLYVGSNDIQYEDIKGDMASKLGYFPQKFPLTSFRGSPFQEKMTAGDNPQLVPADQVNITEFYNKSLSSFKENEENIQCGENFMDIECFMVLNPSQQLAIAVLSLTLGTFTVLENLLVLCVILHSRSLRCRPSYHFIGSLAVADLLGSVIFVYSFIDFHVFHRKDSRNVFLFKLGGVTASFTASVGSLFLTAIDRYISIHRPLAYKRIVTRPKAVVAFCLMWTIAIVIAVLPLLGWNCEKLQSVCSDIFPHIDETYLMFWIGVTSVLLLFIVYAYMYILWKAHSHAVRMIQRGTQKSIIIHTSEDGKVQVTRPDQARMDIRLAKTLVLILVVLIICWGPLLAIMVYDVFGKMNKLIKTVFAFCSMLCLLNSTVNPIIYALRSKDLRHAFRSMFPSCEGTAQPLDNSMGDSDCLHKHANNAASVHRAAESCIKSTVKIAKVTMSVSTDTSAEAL

CCCCn1c(=O)c(C(=O)NC23CC4CC(CC(C4)C2)C3)c(O)c2nn(C)cc21.[Cs] [63-cesium salt, N-(Adamantan-1-yl)-4-(1-butyl)-7-hydroxy-2-methyl-5-oxo-4,5-dihydro-2H-pyrazolo[4,3-b]pyridine-6-carboxamide Cesium Salt]
Concentration of dissolved 63 maintained for at least one hour ([1]; 0.9% NaCl): around 50 × 10^−6 mol/L
Peak concentration of dissolved 63 ([1]; 0.9% NaCl): higher than 100 × 10^−6 mol/L
Time to decrease to the value consistent with the Ks of the sodium salt ([1]; 0.9% NaCl): 200 min

Cn1cc2c(n1)c(O)c(C(=O)NC13CC4CC(CC(C4)C1)C3)c(=O)n2Cc1ccccc1 [Compound 26, N-(Adamantan-1-yl)-4-benzyl-7-hydroxy-2-methyl-5-oxo-4,5-dihydro-2H-pyrazolo[4,3-b]pyridine-6-carboxamide]
Ki (human CB2 receptor [2]): < 20 nM and 0.48 nM
melting point: 180 to 183 °C
Functional behavior at CB2R (human CB2 receptor [3]): antagonist/inverse agonist behavior

CCCCCn1c(=O)c(C(=O)NC23CC4CC(CC(C4)C2)C3)c(O)c2nn(C)c(C)c21 [Compound 55, N-(Adamantan-1-yl)-7-hydroxy-2,3-dimethyl-5-oxo-4-(1-pentyl)-4,5-dihydro-2H-pyrazolo[4,3-b]pyridine-6-carboxamide]
CB1 receptor activity in words [4]: not active at all
Ki ([4]; membranes from HEK cells, [3H]CP-55,940, mean ± SD, at least three experiments in duplicate, read-out: CB1R Ki): > 10 µM
Ki (human CB2 receptor [2]): < 20 nM and 2.11 nM
logKiCB2 (nM) Exp. (human CB2 receptor [2]): 0.32
melting point: 67 °C
Functional behavior at CB2R (human CB2 receptor [3]): antagonist/inverse agonist behavior

CCCCCn1c(=O)c(C(=O)NC23CC4CC(CC(C4)C2)C3)c(O)c2nn(C)cc21 [Compound 3, reference compound]
Selectivity Index (human CB2 receptor [5]): 167

CCCCn1c(=O)c(C(=O)NC23CC4CC(CC(C4)C2)C3)c(O)c2nn(C)cc21.[Na] [63-sodium salt, N-(Adamantan-1-yl)-4-(1-butyl)-7-hydroxy-2-methyl-5-oxo-4,5-dihydro-2H-pyrazolo[4,3-b]pyridine-6-carboxamide Sodium Salt]
Concentration of dissolved 63, average over time points ([1]; excess salt in 0.9% NaCl, room temperature): 6.37 µM

CC(C)n1c(=O)c(C(=O)NC23CC4CC(CC(C4)C2)C3)c(O)c2c1cnn2C [Compound 57]
Ki [4]: > 10 µM
SI (selectivity index for CB2R, Ki(CB1R)/Ki(CB2R)) (human CB2 receptor [2]): >184
Ki (human CB2 receptor [2]): 54.3 ± 12.3 nM
logKiCB2 (nM) Exp. (human CB2 receptor [2]): 1.73
EC50 (human CB2 receptor [3]): 1590 nM
Functional behavior at CB2R (human CB2 receptor [3]): typical agonist behavior
Emax (human CB2 receptor [3]; agonist mode, 25 µM NKH477): 84.05
